Results: patent publication US20100041744A1, “OILY PACLITAXEL COMPOSITION AND FORMULATION FOR CHEMOEM[…] PREPARATION METHOD THEREOF” (priority 2001, published 2010)
In brackets after ≈: the same amount, converted by molar mass.

How the values were obtained:
[1] = Solubilization / solubility of paclitaxel in oily contrast medium
Description: (§1) One milliliter of Lipiodol (Lipiodol Ultra-fluid, Laboratoire Guerbet, France, Iodine content 38% by weight) was used as an oily contrast medium. Lipiodol and 2, 4, 6, 8, 10 or 11 mg of paclitaxel (Samyang Genex, Korea) were added in test tubes (micro test tubes with safety lock, polyethylene, 1.5 ml, Eppendorf AG, Germany) and solubilized by stirring at room temperature. To speed up the solubilization process, it is acceptable to raise the temperature to 35˜45° C. or to sonicate in a bath type sonicator.
(§2) One milliliter of Lipiodol (Lipiodol Ultra-fluid, Laboratoire Guerbet, France, Iodine content 38% by weight) and 10 mg of paclitaxel (Samyang Genex, Korea) were added in test tubes and solubilized by stirring at room temperature. To speed up the solubilization process, the temperature of the mixture was raised to 40° C.
(§3) A mixture of 1 ml of Lipiodol (Lipiodol Ultra-fluid, Laboratoire Guerbet, France, Iodine content 38% by weight) and 0.01 ml of tricaprylin (Sigma Chemical Co.) and 12 mg of paclitaxel (Samyang Genex, Korea) were added in a test tube and solubilized by stirring at room temperature. To speed up the solubilization process, the composition was sonicated in a bath type sonicator.

physchem = conditions: oil or lipid
Description: as §1, §2, §3

solubility of paclitaxel in mixed oil system of lipiodol/tricaprylin compared with lipiodol alone [1]: higher
solubility (physchem; Lipiodol (oily contrast medium), 26 °C, thermodynamic from solid): ~10000 µg/mL (≈ 11.7 mM)
solubility (physchem): ≤ 13000 µg/mL
Compound: CC(=O)O[C@H]1C(=O)[C@@]2(C)[C@H]([C@H](OC(=O)c3ccccc3)[C@]3(O)C[C@H](OC(=O)[C@H](O)[C@@H](NC(=O)c4ccccc4)c4ccccc4)C(C)=C1C3(C)C)[C@]1(OC(C)=O)CO[C@@H]1C[C@@H]2O [paclitaxel]
